Experimental data taken from US10077261B2, “Imidazolin-5-one derivative useful as FASN inhibitors for the treatment of cancer” (Janssen Pharmaceutica NV, priority 2012, dated 2018).

Key:
[1] = biological target: T1, hFASN enzyme (full length) (Homo sapiens, UniProt P49327); assay: Fatty Acid Synthase (FASN) inhibition scintillation proximity assay; type: biochemical; conditions: for inhibition at 10 µM: read-out: Human FASN % inhibition @ 10 μM, 10 μM test compound; for IC50: read-out: Human FASN pIC50 (converted)
T1 construct: 10 μL hFASN enzyme (full length, 300 ng, purified in house); made in house
Summary of the method: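 Compounds at 0.01–30 μM were mixed with 300 ng purified full-length enzyme in 100 mM KH2PO4 pH 7.5, 1 mM DTT. Substrates ³H-acetyl-CoA and malonyl-CoA were then converted, and bead addition stopped the reaction. Signal was normalised to low and high plate controls and fitted by 4-parameter nonlinear regression.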

[2] = test system: A2780 ovarian cells; assay: A2780 ovarian cell proliferation assay in lipid reduced medium, without palmitate (MTT); type: cell-based; conditions: Homo sapiens, A2780, 96 h; read-out: pIC50 A2780 Ovarian Cell, Without Palmitate (converted)
[3] = biological target: Fatty Acid Synthase Keto-reductase Domain (FASN KR) (Homo sapiens, UniProt P49327); assay: Fatty Acid Synthase keto-reductase domain (FASN KR) inhibition, NADPH oxidation at 340 nm
Description: After 20 minutes incubation at room temperature the plate was measured again (T2).
The decrease in absorbance was calculated as (Absorbance before incubation T1)−(Absorbance following incubation T2).
A plot of Controlmin versus test compound concentration was fitted to a 4-parameter logistic curve using a non-linear least squares regression method.

[4] = test system: PC-3M-Luc-C6 prostate cells; assay: In vitro PC-3M-Luc-C6 prostate cell proliferation assay in lipid reduced medium; type: cell-based; conditions: 96 h, read-out: pIC50 PC-3M-Luc-C6 prostate cell (converted)
[5] = test system: A2780 ovarian cells; assay: A2780 ovarian cell proliferation assay in lipid reduced medium, with palmitate (MTT); type: cell-based; conditions: Homo sapiens, A2780, 96 h; read-out: pIC50 A2780 Ovarian Cell, With Palmitate (converted)
Summary of the method: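 Seeded cells were switched next day to lipid-reduced serum, exposed to compound and 25 μM palmitate complexed with fatty-acid-free BSA, and incubated 96 h. Proliferation was then determined by MTT absorbance at 544 nm, with a best-fit curve of signal against concentration.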

[6] = test system: LNCaP-Vancouver prostate cells; assay: In vitro LNCaP Vancouver prostate cell proliferation assay in lipid reduced medium; type: cell-based; conditions: read-out: pIC50 LNCaP_Vancouver prostate cell (converted)

T1 sequence (P49327 whole entry): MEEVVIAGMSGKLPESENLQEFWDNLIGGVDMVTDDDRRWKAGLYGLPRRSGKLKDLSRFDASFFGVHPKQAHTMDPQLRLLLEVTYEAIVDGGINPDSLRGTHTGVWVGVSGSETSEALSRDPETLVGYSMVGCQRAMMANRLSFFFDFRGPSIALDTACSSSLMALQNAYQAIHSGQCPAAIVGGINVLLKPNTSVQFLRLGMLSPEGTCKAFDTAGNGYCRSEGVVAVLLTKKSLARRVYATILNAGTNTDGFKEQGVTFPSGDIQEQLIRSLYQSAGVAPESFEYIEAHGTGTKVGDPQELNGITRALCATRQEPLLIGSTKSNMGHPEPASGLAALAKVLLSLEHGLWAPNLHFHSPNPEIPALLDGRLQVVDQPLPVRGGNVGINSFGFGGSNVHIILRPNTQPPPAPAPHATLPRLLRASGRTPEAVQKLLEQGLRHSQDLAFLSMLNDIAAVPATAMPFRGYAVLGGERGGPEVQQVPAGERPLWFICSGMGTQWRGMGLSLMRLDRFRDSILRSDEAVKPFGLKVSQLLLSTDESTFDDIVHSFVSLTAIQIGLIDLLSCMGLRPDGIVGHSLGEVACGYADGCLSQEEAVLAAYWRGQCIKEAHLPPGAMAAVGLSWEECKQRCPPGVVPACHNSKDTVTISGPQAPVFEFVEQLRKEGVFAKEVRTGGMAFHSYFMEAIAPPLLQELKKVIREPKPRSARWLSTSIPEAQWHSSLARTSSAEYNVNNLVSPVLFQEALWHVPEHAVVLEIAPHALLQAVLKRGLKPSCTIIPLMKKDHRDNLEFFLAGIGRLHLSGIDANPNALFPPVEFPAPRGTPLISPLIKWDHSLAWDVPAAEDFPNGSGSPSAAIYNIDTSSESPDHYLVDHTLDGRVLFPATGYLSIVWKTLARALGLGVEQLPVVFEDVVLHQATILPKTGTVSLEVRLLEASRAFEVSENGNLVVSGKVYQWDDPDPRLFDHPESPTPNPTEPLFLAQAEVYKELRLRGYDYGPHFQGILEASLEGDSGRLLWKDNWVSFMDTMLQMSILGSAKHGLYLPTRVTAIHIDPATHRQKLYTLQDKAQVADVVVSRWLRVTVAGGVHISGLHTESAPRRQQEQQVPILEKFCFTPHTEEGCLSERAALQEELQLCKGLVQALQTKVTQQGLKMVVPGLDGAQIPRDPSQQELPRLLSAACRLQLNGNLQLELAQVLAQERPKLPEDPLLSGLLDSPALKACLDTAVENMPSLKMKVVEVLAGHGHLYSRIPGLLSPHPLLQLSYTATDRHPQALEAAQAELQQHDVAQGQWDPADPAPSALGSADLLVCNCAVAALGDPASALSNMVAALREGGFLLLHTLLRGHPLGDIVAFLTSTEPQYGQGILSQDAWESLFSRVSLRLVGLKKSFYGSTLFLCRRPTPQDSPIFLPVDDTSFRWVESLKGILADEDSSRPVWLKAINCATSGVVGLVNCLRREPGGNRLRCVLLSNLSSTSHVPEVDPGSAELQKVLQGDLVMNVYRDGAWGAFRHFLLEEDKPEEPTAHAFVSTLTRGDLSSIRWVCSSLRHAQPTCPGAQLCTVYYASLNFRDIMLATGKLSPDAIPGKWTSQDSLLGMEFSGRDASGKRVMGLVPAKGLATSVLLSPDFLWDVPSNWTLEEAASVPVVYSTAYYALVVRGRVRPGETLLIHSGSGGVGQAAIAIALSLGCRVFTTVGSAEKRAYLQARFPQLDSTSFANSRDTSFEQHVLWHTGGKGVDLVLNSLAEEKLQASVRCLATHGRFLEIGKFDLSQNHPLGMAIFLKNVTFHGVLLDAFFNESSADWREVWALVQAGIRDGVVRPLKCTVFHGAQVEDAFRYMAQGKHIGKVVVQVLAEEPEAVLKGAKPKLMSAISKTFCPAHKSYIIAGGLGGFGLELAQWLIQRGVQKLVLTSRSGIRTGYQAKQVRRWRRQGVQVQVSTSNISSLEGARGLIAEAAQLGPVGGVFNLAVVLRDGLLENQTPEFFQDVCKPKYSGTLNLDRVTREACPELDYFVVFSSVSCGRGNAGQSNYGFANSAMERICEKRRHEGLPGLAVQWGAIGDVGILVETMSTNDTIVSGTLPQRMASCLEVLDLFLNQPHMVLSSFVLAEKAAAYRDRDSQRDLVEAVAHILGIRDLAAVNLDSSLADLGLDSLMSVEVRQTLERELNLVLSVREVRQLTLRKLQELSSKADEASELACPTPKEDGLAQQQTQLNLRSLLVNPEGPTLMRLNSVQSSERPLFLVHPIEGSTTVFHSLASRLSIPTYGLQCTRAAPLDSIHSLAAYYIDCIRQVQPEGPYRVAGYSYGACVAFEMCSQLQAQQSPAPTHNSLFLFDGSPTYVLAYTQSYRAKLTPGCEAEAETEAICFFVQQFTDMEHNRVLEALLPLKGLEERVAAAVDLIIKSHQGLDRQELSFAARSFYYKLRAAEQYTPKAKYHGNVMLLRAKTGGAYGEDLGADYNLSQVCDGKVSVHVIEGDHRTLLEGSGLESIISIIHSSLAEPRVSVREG
Chain of Fatty Acid Synthase Keto-reductase Domain (FASN KR) (P49327 whole entry, the tested form may be a part): as the sequence (P49327 whole entry) above

Structure (SMILES)	inhibition at 10 µM [1]	IC50 [1]	IC50 [2]	IC50 [3]	IC50 [4]	IC50 [5]	IC50 [6]
Cc1cc(-c2cccc3[nH]ncc23)ccc1C1=NC2(CC2)C(=O)N1CC1CN(C(=O)C2CC2)C1 [compound 304, 5-(4-(1H-indazol-4-yl)-2-methylphenyl)-6-((1-(cyclopropanecarbonyl)azetidin-3-yl)methyl)-4,6-diazaspiro[2.4]hept-4-en-7-one]	99%	97.7 nM	85.1 nM	224 nM	72.4 nM	> 10000 nM	1260 nM
Cc1cc(-c2cccc3[nH]ncc23)ccc1C1=NC2(CC2)C(=O)N1C[C@@H]1CCN(C(=O)C2CC2)C1 [compound 306, (R)-5-(4-(1H-indazol-4-yl)-2-methylphenyl)-6-((1-(cyclopropanecarbonyl)pyrrolidin-3-yl)methyl)-4,6-diazaspiro[2.4]hept-4-en-7-one]	98%	50.1 nM	17.8 nM	105 nM	17 nM	> 10000 nM	513 nM
O=C(C1CC1)N1CC[C@@H](CN2C(=O)C3(CC3)N=C2c2ccc(-c3nc4ccccc4s3)cc2)C1 [compound 308, (R)-5-(4-(benzo[d]thiazol-2-yl)phenyl)-6-((1-(cyclopropanecarbonyl)pyrrolidin-3-yl)methyl)-4,6-diazaspiro[2.4]hept-4-en-7-one]	102%	47.9 nM	145 nM	129 nM	100 nM	> 10000 nM	479 nM
O=C(C1CC1)N1CC[C@@H](CN2C(=O)C3(CC3)N=C2c2ccc(-c3cccc4ncccc34)cc2)C1 [compound 310, (R)-6-((1-(cyclopropanecarbonyl)pyrrolidin-3-yl)methyl)-5-(4-(quinolin-5-yl)phenyl)-4,6-diazaspiro[2.4]hept-4-en-7-one]	102%	39.8 nM	589 nM	60.3 nM	~324 nM	> 6170 nM	813 nM
O=C(C1CC1)N1CC[C@@H](CN2C(=O)C3(CC3)N=C2c2ccc(-c3ccc4cccc(F)c4c3)cc2)C1 [compound 313, (R)-6-((1-(cyclopropanecarbonyl)pyrrolidin-3-yl)methyl)-5-(4-(8-fluoronaphthalen-2-yl)phenyl)-4,6-diazaspiro[2.4]hept-4-en-7-one]	99%	38.9 nM	53.7 nM	52.5 nM	~52.5 nM	8710 nM	155 nM
Cc1cc(-c2ccc(-c3cnn(C)c3)cc2)ccc1C1=NC2(CC2)C(=O)N1C[C@@H]1CCN(C(=O)C2CC2)C1 [compound 316, (R)-6-((1-(cyclopropanecarbonyl)pyrrolidin-3-yl)methyl)-5-(3-methyl-4′-(1-methyl-1H-pyrazol-4-yl)-[1,1′-biphenyl]-4-yl)-4,6-diazaspiro[2.4]hept-4-en-7-one]	108%	41.7 nM	~15.8 nM	75.9 nM	19.5 nM	> 10000 nM	102 nM
Cc1cc2cc(-c3ccc(C4=NC5(CC5)C(=O)N4C[C@@H]4CCN(C(=O)C5CC5)C4)c(C)c3)ccc2[nH]1 [compound 317]	103%	57.5 nM	24.5 nM	58.9 nM	51.3 nM	> 10000 nM	257 nM
Cc1cc2cc(-c3ccc(C4=NC5(CC5)C(=O)N4C[C@@H]4CCN(C(=O)C5CC5)C4)c(F)c3)ccc2[nH]1 [compound 319, (R)-6-((1-(cyclopropanecarbonyl)pyrrolidin-3-yl)methyl)-5-(2-fluoro-4-(2-methyl-1H-indol-5-yl)phenyl)-4,6-diazaspiro[2.4]hept-4-en-7-one]	105%	28.8 nM	~13.5 nM	53.7 nM	18.6 nM	> 10000 nM	112 nM
O=C(C1CC1)N1CC(CN2C(=O)C3(CC3)N=C2c2ccc(-c3ccc4cc(Cl)ccc4c3)cc2F)C1 [compound 320, 5-(4-(6-chloronaphthalen-2-yl)-2-fluorophenyl)-6-((1-(cyclopropanecarbonyl)azetidin-3-yl)methyl)-4,6-diazaspiro[2.4]hept-4-en-7-one]	102%	25.7 nM	25.1 nM	~26.9 nM	50.1 nM	6460 nM	251 nM
Cc1cc(-c2ccc3cc(Cl)ccc3c2)ccc1C1=NC2(CC2)C(=O)N1CC1CN(C(=O)C2(C)CC2)C1 [compound 321, 5-(4-(6-chloronaphthalen-2-yl)-2-methylphenyl)-6-((1-(1-methylcyclopropanecarbonyl)azetidin-3-yl)methyl)-4,6-diazaspiro[2.4]hept-4-en-7-one]	99%	30.2 nM	17.8 nM	47.9 nM	50.1 nM	4370 nM	182 nM

Continued, values first:

inhibition at 10 µM [1]	IC50 [1]	IC50 [2]	IC50 [3]	IC50 [4]	IC50 [5]	IC50 [6]	Structure (SMILES)
103%	25.1 nM	40.7 nM	30.9 nM	28.8 nM	> 10000 nM	263 nM	Cc1cc(-c2ccc3cc[nH]c3c2)ccc1C1=NC2(CC2)C(=O)N1C[C@@H]1CCN(C(=O)C2CC2)C1 [compound 305, (R)-5-(4-(1H-indol-6-yl)-2-methylphenyl)-6-((1-(cyclopropanecarbonyl)pyrrolidin-3-yl)methyl)-4,6-diazaspiro[2.4]hept-4-en-7-one]
100%	67.6 nM	91.2 nM	145 nM	102 nM	> 10000 nM	661 nM	O=C(C1CC1)N1CC[C@@H](CN2C(=O)C3(CC3)N=C2c2ccc(-c3nc4ccccc4o3)cc2)C1 [compound 307, (R)-5-(4-(benzo[d]oxazol-2-yl)phenyl)-6-((1-(cyclopropanecarbonyl)pyrrolidin-3-yl)methyl)-4,6-diazaspiro[2.4]hept-4-en-7-one]
102%	38 nM	14.8 nM	79.4 nM	~34.7 nM	> 10000 nM	151 nM	Cn1cc(-c2ccc(-c3ccc(C4=NC5(CC5)C(=O)N4CC4CN(C(=O)C5CC5)C4)c(F)c3)cc2)cn1 [compound 322, 6-((1-(cyclopropanecarbonyl)azetidin-3-yl)methyl)-5-(3-fluoro-4′-(1-methyl-1H-pyrazol-4-yl)-[1,1′-biphenyl]-4-yl)-4,6-diazaspiro[2.4]hept-4-en-7-one]
101%	25.1 nM	~2.88 nM	44.7 nM	8.32 nM	> 10000 nM	33.1 nM	Cn1cc(-c2ccc(-c3ccc(C4=NC5(CC5)C(=O)N4C[C@@H]4CCN(C(=O)C5CC5)C4)c(F)c3)cc2)cn1 [compound 323, (R)-6-((1-(cyclopropanecarbonyl)pyrrolidin-3-yl)methyl)-5-(3-fluoro-4′-(1-methyl-1H-pyrazol-4-yl)-[1,1′-biphenyl]-4-yl)-4,6-diazaspiro[2.4]hept-4-en-7-one]
105%	32.4 nM	19.5 nM	67.6 nM	~30.2 nM	> 10000 nM	158 nM	O=C(C1CC1)N1CC(CN2C(=O)C3(CC3)N=C2c2ccc(-c3ccc4ccc(F)cc4c3)cc2F)C1 [compound 324, 6-((1-(cyclopropanecarbonyl)azetidin-3-yl)methyl)-5-(2-fluoro-4-(7-fluoronaphthalen-2-yl)phenyl)-4,6-diazaspiro[2.4]hept-4-en-7-one]
100%	79.4 nM	~49 nM	490 nM	83.2 nM	> 10000 nM	363 nM	Cc1cc(-c2ccc(-c3cnn(C(C)C)c3)cc2)ccc1C1=NC2(CC2)C(=O)N1CC1CN(C(=O)C2CC2)C1 [compound 325, 6-((1-(cyclopropanecarbonyl)azetidin-3-yl)methyl)-5-(4′-(1-isopropyl-1H-pyrazol-4-yl)-3-methyl-[1,1′-biphenyl]-4-yl)-4,6-diazaspiro[2.4]hept-4-en-7-one]
103%	39.8 nM	~12 nM	407 nM	49 nM	9120 nM	170 nM	Cc1cc(-c2ccc(-c3cnn(C4CC4)c3)cc2)ccc1C1=NC2(CC2)C(=O)N1CC1CN(C(=O)C2CC2)C1 [compound 326, 6-((1-(cyclopropanecarbonyl)azetidin-3-yl)methyl)-5-(4′-(1-cyclopropyl-1H-pyrazol-4-yl)-3-methyl-[1,1′-biphenyl]-4-yl)-4,6-diazaspiro[2.4]hept-4-en-7-one]
